Strand notation (5' to 3'): a small letter for the sugar, then the base; units joined by * are phosphorothioate-linked, units joined directly phosphodiester-linked; [ ] holds rarer units or linkages, { } end groups; capitals alone tell only the bases. e = 2'-O-(2-methoxyethyl) (MOE); [5mC] = 5-methylcytosine; d = 2'-deoxy (DNA)
Key:
[1] = system: human B7-2; experiment: Cell surface expression of B7-2 in transfected COS-7 cells by flow cytometry; type: cell-based; parameters: % Control Protein: concentration or dose not given beside the values; details: hB7-2 protein, flow cytometry; Table 5
Method: A T-175 flask was seeded at 75% confluency with COS-7 cells (ATCC accession No. CRL 1651). The plasmid pcB7-1 was introduced into cells by standard calcium phosphate transfection. Following a 4 hour transfection, the cells were trypsinized and seeded in 12-well dishes at 80% confluency. The cells were allowed to adhere to the plastic for 1 hour and were then washed with phosphate-buffered saline (PBS). OptiMEM™ (GIBCO-BRL, Gaithersburg, Md.) medium was added along with 15 μg/mL of Lipofectin™ (GIBCO-BRL, Gaithersburg, Md.) and oligonucleotide at the indicated concentrations. After four additional hours, the cells were washed with phosphate buffered saline (PBS) and incubated with fresh oligonucleotide at the same concentration in DMEM (Dulbecco et al., Virol., 1959, 8, 396; Smith et al., Virol., 1960, 12, 185) with 10% fetal calf sera (FCS).
In order to monitor the effects of oligonucleotides on cell surface expression of B7-1, treated COS-7 cells were harvested by brief trypsinization 24-48 hours after oligonucleotide treatment. The cells were washed with PBS, then resuspended in 100 μL of staining buffer (PBS, 0.2% BSA, 0.1% azide) with 5 μL conjugated anti-B7-1-antibody (i.e., anti-hCD80-FITC, Ancell, Bayport, Minn.; FITC: fluorescein isothiocyanate). The cells were stained for 30 minutes at 4° C., washed with PBS, resuspended in 300 μL containing 0.5% paraformaldehyde. Cells were harvested and the fluorescence profiles were determined using a flow cytometer.
In an initial screen, the ability of hB7-2 oligonucleotides to inhibit B7-2 expression was evaluated by measuring the cell surface expression of B7-2 in transfected COS-7 cells by flow cytometry. The methods used were similar to those given in Example 2, with the exceptions that (1) COS-7 cells were transfected with the plasmids pbcB7-2 or BBG-58, a human ICAM-1 (CD54) expression vector (R&D Systems, Minneapolis, Minn.) introduced into cells by standard calcium phosphate transfection, (2) the oligonucleotides used were those described in Table 2, and (3) a conjugated anti-B7-2 antibody (i.e., anti-hCD86-FITC or anti-CD86-PE, PharMingen, San Diego, Calif.; PE: phycoerythrin) was used during flow cytometry.
B7 antisense oligonucleotides were tested for their effect on cell surface expression of both B7-1 and B7-2. Cell surface expression was measured as described in Example 1. Experiments were done for both human B7 and mouse B7.
The oligonucleotides were screened as described in Example 2 except that the concentration of oligonucleotide was varied as shown in Table 19.

[2] = system: hB7-2 mRNA; experiment: Ribonuclease protection assay of hB7-2 mRNA in transfected COS-7 cells; type: cell-based, human; parameters: % Control RNA Expression: concentration or dose not given beside the values; details: for % Control RNA Expression: hB7-2 mRNA, Table 5
Method: For ribonuclease protection assays, cells were harvested 18 hours after completion of oligonucleotide treatment using a Totally RNA™ kit (Ambion, Austin, Tex.). The probes for the assay were generated from plasmids pcB7-2 (linearized by digestion with Bgl II) and pTRI-b-actin (Ambion Inc., Austin, Tex.). In vitro transcription of the linearized plasmid from the SP6 promoter was performed in the presence of α-^32P-UTP (800 Ci/mmole) yielding an antisense RNA complementary to the 3′ end of B7-2 (position 1044-1391). The probe was gel-purified after treatment with DNase I to remove DNA template. Ribonuclease protection assays were carried out using an RPA II™ kit (Ambion) according to the manufacturer's directions. Total RNA (5 μg) was hybridized overnight, at 42° C., with 10^5 cpm of the B7-2 probe or a control beta-actin probe. The hybridization reaction was then treated, at 37° C. for 30 minutes, with 0.4 units of RNase A and 2 units of RNase T1. Protected RNA was precipitated, resuspended in 10 μL of gel loading buffer and electrophoresed on a 6% acrylamide gel with 50% w/v urea at 20 W. The gel was then exposed and the lanes quantitated using a PhosphorImager (Molecular Dynamics, Sunnyvale, Calif.) essentially according to the manufacturer's instructions.
The oligonucleotides were screened as described in Example 4 except that the concentration of oligonucleotide was varied as shown in Table 13. Mismatch control oligonucleotides were included.

[3] = system: Human B7-2 mRNA; experiment: Human B7-2 mRNA expression in electroporated THP-1 cells induced with LPS and dibutyryl cAMP; type: cell-based; details: THP-1 cells electroporated at 10 micromolar oligonucleotide, LPS and dibutyryl cAMP (500 μM) 16 hours
Text: The human promonocytic leukaemia cell line, THP-1 (American Type Culture Collection, Manassas, Va.) was maintained in RPMI 1640 growth media supplemented with 10% fetal calf serum (FCS; Life Technologies, Rockville, Md.). A total of 1×10^7 cells were electroporated at an oligonucleotide concentration of 10 micromolar in 2 mm cuvettes, using an Electrocell Manipulator 600 instrument (Biotechnologies and Experimental Research, Inc.) employing 200 V, 1000 μF. Electroporated cells were then transferred to petri dishes and allowed to recover for 16 hrs Cells were then induced with LPS and dibutyryl cAMP (500 μM) for 16 hours. RNA was isolated and processed as described in previous examples.

Substance | % Control Protein [1] | % Control RNA Expression [2] | % mRNA EXPRESSION [3] | % mRNA INHIBITION [3] | also measured
9133 (antisense dT*dT*dC*dC*dA*dG*dG*dT*dC*dA*dT*dG*dA*dG*dC*dC*dA*dT*dT*dA) [compound 9133] | 70.2% | 46.0% |  |  | 
9134 (antisense dC*dA*dT*dA*dA*dG*dG*dT*dG*dT*dG*dC*dT*dC*dT*dG*dA*dA*dG*dT*dG) [compound 9134] | 88.8% | 94.5% |  |  | 
9135 (antisense dT*dT*dA*dC*dT*dC*dA*dT*dG*dG*dT*dA*dA*dT*dG*dT*dC*dT*dT*dT) [compound 9135] | 98.2% | 83.4% |  |  | 
9136 (antisense dA*dT*dT*dA*dA*dA*dA*dA*dC*dA*dT*dG*dT*dA*dT*dC*dA*dC*dT*dT) [compound 9136] | 97.1% | 103.1% |  |  | 
9137 (antisense dG*dG*dA*dA*dC*dA*dC*dA*dG*dA*dA*dG*dC*dA*dA*dG*dG*dT*dG*dG*dT) [compound 9137] | 80.5% | 78.1% |  |  | 
9138 (antisense dC*dC*dG*dT*dA*dC*dC*dT*dC*dC*dT*dA*dA*dG*dG*dC*dT*dC*dC*dT) [compound 9138] | 86.4% | 65.9% |  |  | 
9139 (antisense dC*dC*dC*dA*dT*dA*dG*dT*dG*dC*dT*dG*dT*dC*dA*dC*dA*dA*dA*dT) [compound 9139] | 47.9% | 32.6% |  |  | 
10367 (antisense dG*dC*dA*dC*dA*dG*dC*dA*dG*dC*dA*dT*dT*dC*dC*dC*dA*dA*dG*dG) [compound 10367] | 71.3% | 52.5% |  |  | 
10368 (antisense dT*dT*dG*dC*dA*dA*dA*dT*dT*dG*dG*dC*dA*dT*dG*dG*dC*dA*dG*dG) [compound 10368] | 81.0% | 84.5% |  |  | 
10369 (antisense dT*dG*dG*dT*dA*dT*dG*dG*dG*dC*dT*dT*dT*dA*dC*dT*dC*dT*dT*dT) [compound 10369] | 71.3% | 81.5% |  |  | 
10370 (antisense dA*dA*dA*dA*dG*dG*dT*dT*dG*dC*dC*dC*dA*dG*dG*dA*dA*dC*dG*dG) [compound 10370] | 84.3% | 83.2% |  |  | 
10371 (antisense dG*dG*dG*dA*dG*dT*dC*dC*dT*dG*dG*dA*dG*dC*dC*dC*dC*dC*dT*dT) [compound 10371] | 97.3% | 92.9% |  |  | 
10372 (antisense dC*dC*dA*dT*dT*dA*dA*dG*dC*dT*dG*dG*dG*dC*dT*dT*dG*dG*dC*dC) [compound 10372] | 101.7% | 82.5% |  |  | 
10373 (antisense dT*dG*dC*dG*dA*dG*dC*dT*dC*dC*dC*dC*dG*dT*dA*dC*dC*dT*dC*dC) [compound 10373] | 43.5% | 32.7% |  |  | % mRNA EXPRESSION ([2]; human B7-2 mRNA, Table 12): 24%; % mRNA INHIBITION ([2]; human B7-2 mRNA, Table 12): 76%
113131 (antisense e[5mC]*eG*eT*eG*eT*dG*dT*d[5mC]*dT*dG*dT*dG*d[5mC]*dT*dA*eG*eT*e[5mC]*e[5mC]*e[5mC]) [compound 113131] |  |  | 13% | 87% | 
113132 (antisense eG*e[5mC]*eT*eG*e[5mC]*dT*dT*d[5mC]*dT*dG*d[5mC]*dT*dG*dT*dG*eA*e[5mC]*e[5mC]*eT*eA) [compound 113132] |  |  | 17% | 83% | 
113133 (antisense eT*eA*eT*eT*eT*dG*d[5mC]*dG*dA*dG*d[5mC]*dT*d[5mC]*d[5mC]*d[5mC]*e[5mC]*eG*eT*eA*e[5mC]) [compound 113133] |  |  | 214% |  | 
113134 (antisense eG*e[5mC]*eA*eT*eA*dA*dG*d[5mC]*dA*d[5mC]*dA*dG*d[5mC]*dA*dG*e[5mC]*eA*eT*eT*e[5mC]) [compound 113134] |  |  | 27% | 73% | 
113135 (antisense eT*e[5mC]*e[5mC]*eA*eA*dA*dA*dA*dG*dA*dG*dA*d[5mC]*d[5mC]*dA*eG*eA*eT*eG*e[5mC]) [compound 113135] |  |  | 66% | 34% | 
113136 (antisense eA*eA*eA*eT*eG*d[5mC]*d[5mC]*dT*dG*dT*d[5mC]*d[5mC]*dA*d[5mC]*dT*eG*eT*eA*eG*e[5mC]) [compound 113136] |  |  | 81% | 19% | 
113137 (antisense e[5mC]*eT*eT*e[5mC]*eA*dG*dA*dG*dG*dA*dG*d[5mC]*dA*dG*d[5mC]*eA*e[5mC]*e[5mC]*eA*eG) [compound 113137] |  |  | 57% | 43% | 
113138 (antisense eG*eA*eA*eT*e[5mC]*dT*dT*d[5mC]*dA*dG*dA*dG*dG*dA*dG*e[5mC]*eA*eG*e[5mC]*eA) [compound 113138] |  |  | 12% | 88% | 
113140 (antisense eG*e[5mC]*eT*eT*eT*dG*dG*dT*dT*dT*dT*dG*dA*dG*dA*eG*eT*eT*eT*eG) [compound 113140] |  |  | 214% |  | 
113141 (antisense eA*eG*eG*e[5mC]*eT*dT*dT*dG*dG*dT*dT*dT*dT*dG*dA*eG*eA*eG*eT*eT) [compound 113141] |  |  | 126% |  | 
113142 (antisense eG*e[5mC]*eT*e[5mC]*eA*d[5mC]*dT*d[5mC]*dA*dG*dG*d[5mC]*dT*dT*dT*eG*eG*eT*eT*eT) [compound 113142] |  |  | 35% | 65% | 
113143 (antisense eG*eG*eT*e[5mC]*e[5mC]*dT*dG*d[5mC]*d[5mC]*dA*dA*dA*dA*dT*dA*e[5mC]*eT*eA*e[5mC]*eT) [compound 113143] |  |  | 118% |  | 
113144 (antisense eA*eG*e[5mC]*e[5mC]*e[5mC]*dT*dT*dG*dT*d[5mC]*d[5mC]*dT*dT*dG*dA*eT*e[5mC]*eT*eG*eA) [compound 113144] |  |  | 41% | 59% | 
